Data on ten compounds can be found in patent publication US20160046592A1, “PHARMACEUTICAL COMPOSITION FOR THE TREATMENT OF DIABETES” (Ajinomoto Co., Inc., priority 2013, published 2016).

Counter-ions that a name gives are not always drawn.

Test [1] has as its target T1, PPAR-α (Homo sapiens, UniProt Q07869).
T1 construct: expressed in transfected cells; host or cells: CV-1 (African green monkey kidney)
T1 sequence (Q07869 167-468): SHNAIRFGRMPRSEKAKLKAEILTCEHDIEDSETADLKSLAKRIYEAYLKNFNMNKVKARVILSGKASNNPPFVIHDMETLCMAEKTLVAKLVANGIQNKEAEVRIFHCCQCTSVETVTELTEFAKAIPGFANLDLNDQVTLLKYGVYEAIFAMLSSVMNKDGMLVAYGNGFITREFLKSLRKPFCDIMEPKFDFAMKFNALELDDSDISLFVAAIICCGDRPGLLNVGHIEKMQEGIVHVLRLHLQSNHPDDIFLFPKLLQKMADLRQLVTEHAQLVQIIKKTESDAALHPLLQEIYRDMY
The test can be described thus: Measurement of PPAR-α activity (GAL4 luciferase reporter assay in CV-1 cells). The class given is cell-based. As to conditions: 100(A/B): A = maximum PPAR-α activity of test compound at 3, 10, 30 and 100 μM, B = activity of the compound of WO/2011/058154 at 100 μM, 18 to 20 hours, read-out: Relative fold induction (%) of PPAR α. In a few lines: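 CV-1 cells were co-transfected with a UAS×5-TK-Luc reporter and a hGR-GAL4-hPPARα (LBD 167-468aa) expression plasmid, then dosed with compound for 18 to 20 h at 37 °C, with Bright-Glo luciferase read-out. Relative fold induction (%) is the maximum activity at 3, 10, 30 or 100 μM divided by the activity of a WO/2011/058154 reference compound at 100 μM.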

Test [2] has as its system Rat skeletal muscle-derived L6 myoblasts (differentiated into myotube cells). Put plainly: Evaluation of glycogen accumulation in L6. The class given is cell-based. As to conditions: [14C] glycogen from D-[U-C14] glucose, 3 hours incubation, 100% = compound of Example 1 of WO/2011/058154 at 30 μM. On the procedure: The glycogen accumulation activity was evaluated in skeletal muscle cells according to the published article (ANALYTICAL BIOCHEMISTRY, Vol. 261: 159-163, 1998) by the following method. Rat skeletal muscle-derived L6 myoblasts (ATCC) were seeded in a 96-well collagen-coated plate (IWAKI, 4860-010) by using a growth medium (10% FBS-containing α-MEM medium (NACALAI TESQUE, INC., 21444-05)) under a condition of 4×10^4 cells/100 μL/well. After culturing under conditions of 37° C. and 5% CO2 overnight, the medium was replaced with a differentiation medium (2% FBS-containing α-MEM medium), followed by culturing for 3 days to differentiate the myoblasts into myotube cells. On the day of evaluation, the medium was replaced with a glucose-deprived medium (0.1% BSA-containing DMEM medium (Gibco, 11966)). After culturing for 4 hours, the medium was replaced with assay media (0.1% BSA-containing DMEM medium (NACALAI TESQUE, INC., 08456-65)) containing 0.6% DMSO and one of the test compounds at a concentration which was twice the final evaluation concentration at 15 μL/well. Further, an assay medium containing D-[U—C14] glucose (PerkinElmer Inc., NEC042V) at […] was added at 15 μL/well to adjust the final volume to 30 μL/well. Then, the cells were incubated under conditions of 37° C. and 5% CO2 for 3 hours. After the incubation, each medium was removed by suction with an aspirator, and the wells were rinsed with PBS at 200 μL/well twice. Then, 1 N NaOH was added at 50 μL/well, and the cells were lysed by incubation at 60° C. for 10 minutes. After the temperature of the lysed cells was returned to room temperature, each whole cell lysate and […] glycogen (Sigma-Aldrich, G8876) at 5 μL/well were added to a Multiscreen HTS (Millipore, MSFCN6B) to which 100% ethanol was added in advance at 100 μL/well, followed by incubation at 4° C. for 20 minutes. After the incubation, aspiration was conducted by using Multiscreen HTS Vacuum Manifold (Millipore), followed by rinse with 66% ethanol at 200 μL/well twice. After ethanol remaining on the filter was completely removed by drying, MicroScint40 (PerkinElmer Inc.) was added at 50 μL/well, the amount of [14C] glycogen was measured with TopCountNXT (PerkinElmer Inc.). The activity of each test compound was calculated by the following method. Specifically, the relative activity (%) was calculated as 100×(B−A)/(C−A), where A represents a value (cpm) measured for a well not containing the compound but containing only DMSO, B represents a value measured for a well containing the compound and DMSO, and C represents a value measured for a well containing the compound of Example 1 of WO/2011/058154 at a final concentration of 30 μM. EC50 representing the concentration of the compound at which an increase in activity by 50% was caused was calculated using XLfit (idbs).

As usually defined, the EC50 is the concentration that produces a half-maximal response. Consider `COCCN(CC(=O)O)C(=O)c1cccc(COc2ccc(-c3cc(F)c(F)cc3SC)cc2)c1` [Example 6, 2-[[3-[[4-(4,5-Difluoro-2-methylsulfanyl-phenyl)phenoxy]methyl]benzoyl]-(2-methoxyethyl)amino]acetic Acid], for which the Emax in test [1] was found to be 86%. Also, the midpoint of the response in test [2], the EC50, lay at 570 nM. For `CSc1cc(F)c(F)cc1-c1ccc(OCc2cccc(C(=O)N(CC(=O)O)Cc3ccccn3)c2)cc1` [Example 20, 2-[[3-[[4-(4,5-Difluoro-2-methylsulfanyl-phenyl)phenoxy]methyl]benzoyl]-(2-pyridylmethyl)amino]acetic Acid Trifluoroacetate], in that order: 13% and 710 nM. For the compound `CNCCN(CC(=O)O)C(=O)c1cccc(COc2ccc(-c3cc(F)c(F)cc3SC)cc2)c1` [Example 28, 2-[[3-[[4-(4,5-Difluoro-2-methylsulfanyl-phenyl)phenoxy]methyl]benzoyl]-[2-(methylamino)ethyl]amino]acetic Acid Trifluoroacetate], the Emax in test [1] came to 10%. The same compound displayed a half-maximal effective concentration (EC50) in test [2] of less than 300 nM. Regarding `CSc1cc(F)c(F)cc1-c1ccc(OCc2cccc(C(=O)N(CC(=O)O)CC3CCNCC3)c2)cc1` [Example 35, 2-[[3-[[4-(4,5-Difluoro-2-methylsulfanyl-phenyl)phenoxy]methyl]benzoyl]-(4-piperidylmethyl)amino]acetic Acid Trifluoroacetate], in test [1], the Emax turned out to be 8.5%. Also, the concentration for a half-maximal effect (EC50) in test [2] was 630 nM. With `CSc1cc(F)c(F)cc1-c1ccc(OCc2cccc(C(=O)N(CCN3CCCC3)CC(=O)O)c2)cc1` [Example 40, 2-[[3-[[4-(4,5-Difluoro-2-methylsulfanyl-phenyl)phenoxy]methyl]benzoyl]-(2-pyrrolidin-1-ylethyl)amino]acetic Acid Trifluoroacetate], the Emax in test [1] was determined as 9.4%. The compound also gave a 50% effective concentration (EC50) in test [2] of 5400 nM.

With `CSc1cc(F)c(F)cc1-c1ccc(OCc2cccc(C(=O)N(CC(=O)O)Cc3ncco3)c2)cc1` [Example 42, 2-[[3-[[4-(4,5-Difluoro-2-methylsulfanyl-phenyl)phenoxy]methyl]benzoyl]-(oxazol-2-ylmethyl)amino]acetic Acid], the Emax in test [1] is 13%. The concentration for a half-maximal effect (EC50) in test [2] worked out at 880 nM. On the same counts, the results for `COC[C@H]1CC[C@@H](C(=O)O)N1C(=O)c1cccc(COc2ccc(-c3cc(F)c(F)cc3SC)cc2)c1` [Example 65, (2S,5R)-1-[3-[[4-(4,5-Difluoro-2-methylsulfanyl-phenyl)phenoxy]methyl]benzoyl]-5-(methoxymethyl)pyrrolidine-2-carboxylic Acid] are 7% and 1800 nM.

With `COC[C@H](C)N(CC(=O)O)C(=O)c1cccc(COc2ccc(-c3cc(F)c(F)c4ccoc34)cc2)c1` [Example 80, 2-[[3-[[4-(4,5-Difluorobenzofuran-7-yl)phenoxy]methyl]benzoyl]-[(1S)-2-methoxy-1-methyl-ethyl]amino]acetic Acid], the Emax in test [1] stood at 91%. Still for that read-out and setting: as for `CC(=O)N1CCC(CN(CC(=O)O)C(=O)c2cccc(COc3ccc(-c4cc(F)c(F)c5ccoc45)cc3)c2)CC1` [Example 81, 2-[(1-Acetyl-4-piperidyl)methyl-[3-[[4-(4,5-difluorobenzofuran-7-yl)phenoxy]methyl]benzoyl]amino]acetic Acid], the figure is 6.4%; as for `O=C(O)CN(C(=O)c1cccc(COc2ccc(-c3cc(F)c(F)c4ccoc34)cc2)c1)C1CCNC1=O` (centres unmarked) [Example 82, 2-[[3-[[4-(4,5-Difluorobenzofuran-7-yl)phenoxy]methyl]benzoyl]-(2-oxopyrrolidin-3-yl)amino]acetic Acid], 11%.
